Experimental data published in ChEMBL document CHEMBL3885861, “Open TG-GATES”.

Species on record: Rattus norvegicus
Test: Open TG-GATES - Regimen: Single
Format: toxicity, organism-based, Sprague-Dawley
Set-up: regimen Single, gender Male, age 6 weeks
Details: in vivo, po, route gavage; for Hb / Ht / Lym / MCH / MCHC / MCV / Mono / Neu / PT / Plat / RBC / Ret / WBC / APTT / Bas / Eos / Fbg: tissue Blood; for KIDNEY_L / KIDNEY_R / KIDNEY_TOTAL: tissue Kidney; for LIVER: tissue Liver; for ALP / ALT / AST / BUN / CRE / Ca / Cl / DBIL / GLC / IP / K / LDH / Na / PL / RALB / TBIL / TC / TP / gamma-GTP: tissue Plasma
[1] = 50 mg/kg, 6 h, dose level Middle
[2] = 50 mg/kg, 9 h, dose level Middle
[3] = 50 mg/kg, 24 h, dose level Middle
[4] = 150 mg/kg, 3 h, dose level High
[5] = 150 mg/kg, 6 h, dose level High
[6] = 150 mg/kg, 9 h, dose level High
[7] = 150 mg/kg, 24 h, dose level High

O=P1(N(CCCl)CCCl)NCCCO1 (configuration not stated) [CYCLOPHOSPHAMIDE ANHYDROUS]
Hb [1]: 12.8 g/dL | Ht [1]: 37.8% | Lym [1]: 73.2% | MCH [1]: 21.1 pg | MCHC [1]: 33.7% | MCV [1]: 62.7 fL | Mono [1]: 2.6% | Neu [1]: 22.8% | PT [1]: 14.2 s | Plat [1]: 115.3 x10_4/uL | RBC [1]: 603.6 x10_4/ul | Ret [1]: 8.9% | WBC [1]: 84.9 x10_2/uL | KIDNEY_L [1]: 0.9 g | KIDNEY_R [1]: 0.8 g | KIDNEY_TOTAL [1]: 1.7 g | LIVER [1]: 7.5 g | ALP [1]: 1677 IU/L | ALT [1]: 35 IU/L | AST [1]: 72.8 IU/L | BUN [1]: 9.6 mg/dL | CRE [1]: 0.2 mg/dL | Ca [1]: 10.9 mg/dL | Cl [1]: 106.2 meq/L | DBIL [1]: 0.016 mg/dL | GLC [1]: 171.6 mg/dL | IP [1]: 9.9 mg/dL | K [1]: 4.4 meq/L | LDH [1]: 65 IU/L | Na [1]: 141.4 meq/L | PL [1]: 134 mg/dL | RALB [1]: 2.5 g/dL | TBIL [1]: 0.064 mg/dL | TC [1]: 72.2 mg/dL | TP [1]: 5.4 g/dL | gamma-GTP [1]: 1.4 IU/L | TERMINAL_BW [2]: 187.4 g | APTT [2]: 17.8 s | Bas [2]: 0% | Eos [2]: 1% | Fbg [2]: 284.8 mg/dL | Hb [2]: 12.7 g/dL | Ht [2]: 37.5% | Lym [2]: 76% | MCH [2]: 20.9 pg | MCHC [2]: 33.8% | MCV [2]: 61.8 fL | Mono [2]: 2% | Neu [2]: 21% | PT [2]: 14.1 s | Plat [2]: 112.4 x10_4/uL | RBC [2]: 606.8 x10_4/ul | Ret [2]: 9.1% | WBC [2]: 56.3 x10_2/uL | KIDNEY_L [2]: 0.8 g | KIDNEY_R [2]: 0.8 g | KIDNEY_TOTAL [2]: 1.7 g | LIVER [2]: 7.1 g | ALP [2]: 1578.4 IU/L | ALT [2]: 28.4 IU/L | AST [2]: 67.4 IU/L | BUN [2]: 9.6 mg/dL | CRE [2]: 0.2 mg/dL | Ca [2]: 10.6 mg/dL | Cl [2]: 106.8 meq/L | DBIL [2]: 0.016 mg/dL | GLC [2]: 177.2 mg/dL | IP [2]: 10.7 mg/dL | K [2]: 4.1 meq/L | LDH [2]: 55.4 IU/L | Na [2]: 142.8 meq/L | PL [2]: 125.4 mg/dL | RALB [2]: 2.5 g/dL | TBIL [2]: 0.066 mg/dL | TC [2]: 73.8 mg/dL | TP [2]: 5.3 g/dL | gamma-GTP [2]: 1.6 IU/L | TERMINAL_BW [3]: 200.3 g | APTT [3]: 24.4 s | Bas [3]: 0% | Eos [3]: 1% | Fbg [3]: 285.8 mg/dL | Hb [3]: 13 g/dL | Ht [3]: 38.7% | Lym [3]: 80.8% | MCH [3]: 20.8 pg | MCHC [3]: 33.5% | MCV [3]: 62 fL | Mono [3]: 2.4% | Neu [3]: 15.4% | PT [3]: 14.5 s | Plat [3]: 114 x10_4/uL | RBC [3]: 624.4 x10_4/ul | Ret [3]: 5.5% | WBC [3]: 30.3 x10_2/uL | KIDNEY_L [3]: 0.9 g | KIDNEY_R [3]: 0.9 g | KIDNEY_TOTAL [3]: 1.8 g | LIVER [3]: 8.4 g | ALP [3]: 1583 IU/L | ALT [3]: 36.8 IU/L | AST [3]: 68.8 IU/L | BUN [3]: 14 mg/dL | CRE [3]: 0.2 mg/dL | Ca [3]: 11 mg/dL | Cl [3]: 106 meq/L | DBIL [3]: 0.026 mg/dL | GLC [3]: 176.4 mg/dL | IP [3]: 8.3 mg/dL | K [3]: 4.4 meq/L | LDH [3]: 101.8 IU/L | Na [3]: 140.4 meq/L | PL [3]: 143.2 mg/dL | RALB [3]: 2.5 g/dL | TBIL [3]: 0.066 mg/dL | TC [3]: 79.4 mg/dL | TP [3]: 5.4 g/dL | gamma-GTP [3]: 1 IU/L | TERMINAL_BW [4]: 193.2 g | APTT [4]: 16.8 s | Bas [4]: 0% | Eos [4]: 0.8% | Fbg [4]: 274.6 mg/dL | Hb [4]: 12.8 g/dL | Ht [4]: 38.2% | Lym [4]: 77.6% | MCH [4]: 21.2 pg | MCHC [4]: 33.3% | MCV [4]: 63.5 fL | Mono [4]: 2.8% | Neu [4]: 18% | PT [4]: 14 s | Plat [4]: 118.8 x10_4/uL | RBC [4]: 602 x10_4/ul | Ret [4]: 9.4% | WBC [4]: 95.6 x10_2/uL | KIDNEY_L [4]: 0.9 g | KIDNEY_R [4]: 0.9 g | KIDNEY_TOTAL [4]: 1.7 g | LIVER [4]: 8 g | ALP [4]: 1465.2 IU/L | ALT [4]: 33.2 IU/L | AST [4]: 72 IU/L | BUN [4]: 11.2 mg/dL | CRE [4]: 0.2 mg/dL | Ca [4]: 10.9 mg/dL | Cl [4]: 105.2 meq/L | DBIL [4]: 0.018 mg/dL | GLC [4]: 176 mg/dL | IP [4]: 8.6 mg/dL | K [4]: 4.1 meq/L | LDH [4]: 75.6 IU/L | Na [4]: 140 meq/L | PL [4]: 136.8 mg/dL | RALB [4]: 2.5 g/dL | TBIL [4]: 0.064 mg/dL | TC [4]: 71 mg/dL | TP [4]: 5.3 g/dL | gamma-GTP [4]: 1 IU/L | TERMINAL_BW [5]: 185.5 g | APTT [5]: 17.1 s | Bas [5]: 0% | Eos [5]: 1% | Fbg [5]: 284.8 mg/dL | Hb [5]: 13.2 g/dL | Ht [5]: 39.4% | Lym [5]: 71.4% | MCH [5]: 20.6 pg | MCHC [5]: 33.6% | MCV [5]: 61.3 fL | Mono [5]: 2.4% | Neu [5]: 25% | PT [5]: 14.2 s | Plat [5]: 119.4 x10_4/uL | RBC [5]: 643 x10_4/ul | Ret [5]: 9% | WBC [5]: 86.7 x10_2/uL | KIDNEY_L [5]: 0.8 g | KIDNEY_R [5]: 0.8 g | KIDNEY_TOTAL [5]: 1.7 g | LIVER [5]: 6.9 g | ALP [5]: 1365.8 IU/L | ALT [5]: 34.8 IU/L | AST [5]: 76.8 IU/L | BUN [5]: 12 mg/dL | CRE [5]: 0.2 mg/dL | Ca [5]: 10.8 mg/dL | Cl [5]: 107 meq/L | DBIL [5]: 0.012 mg/dL | GLC [5]: 184.4 mg/dL | IP [5]: 10.2 mg/dL | K [5]: 4.5 meq/L | LDH [5]: 64.8 IU/L | Na [5]: 143.2 meq/L | PL [5]: 138.8 mg/dL | RALB [5]: 2.5 g/dL | TBIL [5]: 0.062 mg/dL | TC [5]: 77.4 mg/dL | TP [5]: 5.5 g/dL | gamma-GTP [5]: 1.2 IU/L | TERMINAL_BW [6]: 190.2 g | APTT [6]: 16.2 s | Bas [6]: 0% | Eos [6]: 0.8% | Fbg [6]: 293.4 mg/dL | Hb [6]: 13.1 g/dL | Ht [6]: 39.2% | Lym [6]: 79.4% | MCH [6]: 20.5 pg | MCHC [6]: 33.5% | MCV [6]: 61.1 fL | Mono [6]: 1.8% | Neu [6]: 17.8% | PT [6]: 14 s | Plat [6]: 117.6 x10_4/uL | RBC [6]: 642.6 x10_4/ul | Ret [6]: 8.1% | WBC [6]: 50.7 x10_2/uL | KIDNEY_L [6]: 0.8 g | KIDNEY_R [6]: 0.8 g | KIDNEY_TOTAL [6]: 1.7 g | LIVER [6]: 7.2 g | ALP [6]: 1219.4 IU/L | ALT [6]: 26.2 IU/L | AST [6]: 67.6 IU/L | BUN [6]: 13 mg/dL | CRE [6]: 0.2 mg/dL | Ca [6]: 10.7 mg/dL | Cl [6]: 106.6 meq/L | DBIL [6]: 0.014 mg/dL | GLC [6]: 185.2 mg/dL | IP [6]: 10.5 mg/dL | K [6]: 4.2 meq/L | LDH [6]: 57.8 IU/L | Na [6]: 142.6 meq/L | PL [6]: 136.6 mg/dL | RALB [6]: 2.6 g/dL | TBIL [6]: 0.066 mg/dL | TC [6]: 78.2 mg/dL | TP [6]: 5.4 g/dL | gamma-GTP [6]: 1.4 IU/L | TERMINAL_BW [7]: 187.2 g | APTT [7]: 16.8 s | Bas [7]: 0.2% | Eos [7]: 1.4% | Fbg [7]: 285.2 mg/dL | Hb [7]: 13.3 g/dL | Ht [7]: 39% | Lym [7]: 63.8% | MCH [7]: 21 pg | MCHC [7]: 34.1% | MCV [7]: 61.6 fL | Mono [7]: 2.8% | Neu [7]: 31.8% | PT [7]: 14.3 s | Plat [7]: 100.5 x10_4/uL | RBC [7]: 634 x10_4/ul | Ret [7]: 5% | WBC [7]: 18 x10_2/uL | KIDNEY_L [7]: 0.9 g | KIDNEY_R [7]: 0.9 g | KIDNEY_TOTAL [7]: 1.8 g | LIVER [7]: 7.4 g | ALP [7]: 1374 IU/L | ALT [7]: 27.8 IU/L | AST [7]: 67.8 IU/L | BUN [7]: 17 mg/dL | CRE [7]: 0.2 mg/dL | Ca [7]: 10.5 mg/dL | Cl [7]: 107 meq/L | DBIL [7]: 0.02 mg/dL | GLC [7]: 178.8 mg/dL | IP [7]: 9 mg/dL | K [7]: 4.6 meq/L | LDH [7]: 55.2 IU/L | Na [7]: 142 meq/L | PL [7]: 138.2 mg/dL | RALB [7]: 2.5 g/dL | TBIL [7]: 0.068 mg/dL | TC [7]: 86.2 mg/dL | TP [7]: 5.3 g/dL | gamma-GTP [7]: 1 IU/L
